Results: patent publication US20080280860A1, “Use of Vitamin D Compounds to Treat Endometriosis” (BioXell S.p.A., priority 2005, published 2008)

Key:
endometriotic lesions = experiment: In vivo model of endometriosis (lesion weight); set-up: species or system Balb/c mice
Method: Balb/c donor mice were injected with estrogen (Estradiol AMSA; 3 ug/mouse) and one week later were sacrificed and the uterus was removed, the two horns isolated and reduced to small fragments. The fragments derived from the isolated uterine horns were resuspended in saline with ampicillin (1 mg/ml) and then injected into the peritoneum of two recipient Balb/c mice, previously anesthesized, through a 0.5 cm incision in the abdominal wall. […] Antibiotic (ampicillin 1 mg/ml) was administered on the day of the surgery and on the day after. […] […] Lesions can be identified as translucid isolated or grouped cysts mainly found on the abdominal wall, on the pancreas, and around the uterus. In some cases the lesions are necrotic. The lesions were carefully removed and put on a glass slide to dry for 48 hours, and then were weighed. In other experiments lesions are transferred to a lysis solution and mRNA isolated for gene expression analysis. For immunohistochemical analysis, lesions were frozen immediately after isolation.
Balb/c donor mice were injected with estrogen (Estradiol AMSA; 3 ug/mouse) and one week later were sacrificed and the uterus was removed, the two horns isolated and reduced to small fragments. The fragments derived from the isolated uterine horns were resuspended in saline with ampicillin (1 mg/ml) and then injected into the peritoneum of two recipient Balb/c mice, previously anesthetised, through a 0.5 cm incision in the abdominal wall. Antibiotic (ampicillin 1 mg/ml) was administered on the day of the surgery and on the day after. […] Dosage levels of the test compounds were at the maximum tolerated levels for the compound in question, i.e. 1-alpha-fluoro-25-hydroxy-16,23E-diene-26,27-bishomo-20-epi-cholecalciferol (Compound A) 100 ug/kg, calcitriol (Compound B) 0.3 ug/kg and 1,25-dihydroxy-21-(3-hydroxy-3-methylbutyl)-19-nor-cholecalciferol (Compound C) 3 ug/kg.
(§1) […] Lesions can be identified as translucid isolated or grouped cysts mainly found on the abdominal wall, on the pancreas, and around the uterus. In some cases the lesions are necrotic. The lesions were carefully removed and put on a glass slide to dry for 48 hours, and then were weighed.
Balb/c donor mice were injected with estrogen (Estradiol AMSA; 3 ug/mouse) and one week later were sacrificed and the uterus was removed, the two horns isolated and reduced to small fragments. The fragments derived from the isolated uterine horns were resuspended in saline with ampicillin (1 mg/ml) and then injected into the peritoneum of recipient Balb/c mice, previously anesthetised, through a 0.5 cm incision in the abdominal wall. Antibiotic (ampicillin 1 mg/ml) was administered on the day of the surgery and on the day after. […]
as §1, with “weighed. At least 10 test animals were used in each group.” for “weighed.”
Further experiments were performed using Compound A at 100 ug/kg but varying the time at which administration of the vitamin D compound was initiated and the time point at which administration was ceased. Specifically: (i) administration for 1 week prior to injection of the uterine fragments (ii) administration for 2 weeks subsequent to injection of the uterine fragments (iii) administration for 1 week prior and 2 weeks subsequent to injection of the uterine fragments (iv) administration for 2 weeks, initiated two days subsequent to injection of the uterine fragments (v) administration for 2 weeks, initiated two weeks subsequent to injection of the uterine fragments. In these experiments, subjects were sacrificed at the later of two weeks post injection or the end of the treatment period as appropriate.

[1] = tested on: human stromal endometrial cells; experiment: Cell chemotaxis assay (modified Boyden chamber); format: cell-based; conditions: FIG. 10
Method: Human stromal cell preparation: tissue was gently minced into small pieces (1 to 2 mm^3) and incubated at 37° C. for 1 h with 0.1% type A collagenase. At the end of the incubation, single stromal cells were separated from large dumps of epithelium by a 10 min. period of differential sedimentation at unity gravity. The top 8 ml of medium, containing predominantly stromal cells, were then slowly removed and the cells were collected by centrifugation. The stromal-enriched fraction was washed twice in culture medium and allowed to adhere selectively to tissue culture dishes for 15 min. Thereafter, non-attached epithelial cells still present were removed and a purified stromal preparation was obtained on the surface of the culture dishes.
Endometrial stromal cells migration was evaluated by means of chemotaxis experiments in a 48-well modified Boyden chamber. With the migration assay, we assessed the ability of the cells to migrate toward a chemo-attractant on a two-dimensional substrate (in our case, collagen type IV). […] The cells that had migrated to the lower side of the filter were stained with Diff-Quick stain (VWR Scientific Products, Bridgeport, N.J.), and 5-8 unit fields per filter were counted at 160× magnification using a Zeiss microscope. […]

[2] = Example 3 dose/response, ip once a day, 5 days a week for two weeks, FIG. 7

**Q.** With C=C1/C(=C\C=C2/CCC[C@]3(C)C([C@@H](C)C/C=C/C(O)(CC)CC)=CC[C@@H]23)C[C@@H](O)C[C@@H]1F [Compound A, 1-alpha-fluoro-25-hydroxy-16,23E-diene-26,27-bishomo-20-epi-cholecalciferol] as the compound, how does the “reduction in lesion weight, group (v)” value (endometriotic lesions; 100 ug/kg, 2 weeks, initiated 2 weeks after uterus transfer, FIG. 8) read?
**A.** 34%

**Q.** And the “reduction in lesion weight, group (iv)” value (endometriotic lesions; 100 ug/kg, 2 weeks, initiated 2 days after uterus transfer, FIG. 8)?
**A.** 35%

**Q.** What about the “reduction in lesion weight, group (i)” value (endometriotic lesions; 100 ug/kg, administration for 1 week prior to injection of the uterine fragments, FIG. 8) of the same compound?
**A.** 40%

**Q.** What about the “reduction in lesion weight, group (iii)” value (endometriotic lesions; 100 ug/kg, one week before and two weeks after uterus transfer, FIG. 8) of the same compound?
**A.** 73%

**Q.** And the “reduction in lesion weight, group (ii)” value (endometriotic lesions; 100 ug/kg, two weeks starting at the time of uterus transfer, FIG. 8)?
**A.** 48%

**Q.** What about the “lesion weight, treated versus control (vehicle only)” value (endometriotic lesions; Example 1, 100 ug/kg ip once a day, 5 days a week for two weeks, 17 pairs of mice, p=0.0034 paired, p=0.020 unpaired t test) of the same compound?
**A.** significant reduction in lesion weight

**Q.** And the “lesion weight reduction between paired animals (mean ± standard error)” value (endometriotic lesions; Example 2, 100 ug/kg ip once a day, 5 days a week for two weeks after uterus transfer, 24 mice per group)?
**A.** 51±11%

**Q.** What about the mean lesion weight (endometriotic lesions; Example 2, 100 ug/kg ip, two weeks, miglyol control 8.452±1.039 mg) of the same compound?
**A.** 3.527 ± 0.5400 mg

**Q.** What about the “reduction in lesion weight compared with the other compounds tested” value (endometriotic lesions; Example 2, each compound at its maximum tolerated level) of the same compound?
**A.** most pronounced

**Q.** And the “lesion weight, treated versus control (vehicle only), statistical analysis” value (endometriotic lesions; Example 2, each compound at its maximum tolerated level, ip once a day, 5 days a week for two weeks)?
**A.** significant reduction in lesion weight

**Q.** And the “reduction in lesion weight at 1/10 MTD” value (endometriotic lesions; [2])?
**A.** approximately 20%

**Q.** And the “reduction in lesion weight at around ⅓ MTD” value (endometriotic lesions; [2])?
**A.** approximately 35%

**Q.** What about the “reduction in migration with estrogen stimulation” value ([1]; 1 uM pretreatment 30 min, then β-Estradiol 24 h) of the same compound?
**A.** approximately 50%

**Q.** What about the “basal condition of migration” value ([1]; 1 uM, without estrogen stimulation) of the same compound?
**A.** No effect
